Test results from patent US20160194299A1 (priority 2013, published 2016).
In brackets after ≈: the same amount, converted by molar mass. Like-named read-outs stand apart in the source and are kept apart here.

Legend:
[1] = in vitro; conditions: African green monkey
[2] = tested on: Mtb; test: microbe, parasite or virus in culture; format: cell-based, Mycobacterium tuberculosis; conditions: Mycobacterium tuberculosis, read-out: MIC (I)
[3] = tested on: Mtb; test: microbe, parasite or virus in culture; format: cell-based, Mycobacterium tuberculosis; conditions: Mycobacterium tuberculosis, read-out: MIC (III)

SMILES	CC50 [1] [µg/mL]	MIC [2] [µg/mL]	MIC [3] [µg/mL]
CC(C)OC(=O)NC(=O)c1cc(F)sc1NC(=O)c1nc2ccccc2s1 [Compound 342]	25 to 50 (≈ 61.4 to 123 µM)	< 1	5 to 25 (≈ 12.3 to 61.4 µM)
CCOC(=O)NC(=O)c1ccsc1NC(=O)c1cc(O)nc2ccccc12 [Compound 115]	> 50	> 3	> 25
CCOC(=O)NC(=O)c1ccsc1NC(=O)c1cc2ccc(Cl)cc2s1 [Compound 333]	25 to 50 (≈ 61.1 to 122 µM)	< 1	5 to 25 (≈ 12.2 to 61.1 µM)
CCOC(=O)NC(=O)c1ccsc1NC(=O)c1nc(S(C)(=O)=O)ncc1Cl [Compound 126]	< 25	> 3	> 25
Cc1cc(COC(=O)NC(=O)c2ccsc2NC(=O)c2nc3cnccc3s2)ccn1 [Compound 280]	25 to 50 (≈ 55.1 to 110 µM)	> 3	> 25
CCOC(=O)NC(=O)c1ccsc1NC(=O)c1ccc2cccnc2c1 [Compound 63]	> 50	< 1	5 to 25 (≈ 13.5 to 67.7 µM)
CCOC(=O)NC(=O)c1ccsc1NC(=O)c1nc2c(N3CCOCC3)ccnc2s1 [Compound 247]	25 to 50 (≈ 54.2 to 108 µM)	< 1	5 to 25 (≈ 10.8 to 54.2 µM)
CCC(OC(=O)NC(=O)c1ccsc1NC(=O)c1cnc2ccnn2c1)c1ccccc1 (stereo not drawn) [Compound 306]	< 25	> 3	> 25
CCOC(=O)NC(=O)c1ccsc1NC(=O)c1cnn2ccccc12 [Compound 265]	25 to 50 (≈ 69.8 to 140 µM)	> 3	> 25
CCOC(=O)NC(=O)c1ccsc1NC(=O)c1nc2ncccn2n1 [Compound 125]	> 50	> 3	5 to 25 (≈ 13.9 to 69.4 µM)
CCOC(=O)NC(=O)c1ccsc1NC(=O)C1=Cc2cccc(OC)c2OC1 [Compound 66]	> 50	< 1	< 5
CCOC(=O)NC(=O)c1ccsc1NC(=O)c1cnc2ccsc2c1 [Compound 394]	< 25	< 1	> 25
CCOC(=O)NC(=O)c1ccsc1NC(=O)c1sc(-c2ccncc2)nc1C [Compound 135]	> 50	> 3	> 25
CCOC(=O)NC(=O)c1ccsc1NC(=O)c1ccc(=O)n(C)c1 [Compound 140]	> 50	> 3	5 to 25 (≈ 14.3 to 71.6 µM)
CCOC(=O)NC(=O)c1cc(F)sc1NC(=O)c1ccn2nccc2c1 [Compound 343]	< 25	< 1	> 25
CCOC(=O)NC(=O)c1ccsc1NC(=O)C1=Cc2ccccc2OC1 [Compound 67]	> 50	< 1	< 5
CCOC(=O)NC(=O)c1ccsc1NC(=O)c1cc(O)ncn1 [Compound 147]	> 50	> 3	> 25
O=C(NC(=O)c1ccsc1NC(=O)c1cn2ccccc2n1)OC1CCCCC1 [Compound 381]	< 25	> 3	> 25
CCOC(=O)NC(=O)c1cc(F)sc1NC(=O)c1nc2cnccc2s1 [Compound 337]	25 to 50 (≈ 63.4 to 127 µM)	< 1	> 25
CCOC(=O)NC(=O)c1cc(C)sc1NC(=O)c1ccc2scnc2c1 [Compound 62]	25 to 50 (≈ 64.2 to 128 µM)	1 to 3 (≈ 2.57 to 7.7 µM)	> 25
CCOC(=O)NC(=O)c1ccsc1NC(=O)c1nc2c(s1)CNCC2 [Compound 84]	> 50	1 to 3 (≈ 2.63 to 7.89 µM)	> 25

SMILES	CC50 [1] [µg/mL]	MIC [2] [µg/mL]	MIC [3] [µg/mL]
CCOC(=O)NC(=O)c1ccsc1NC(=O)c1nc2cnccc2s1 [Compound 82]	> 50	< 1	< 5
CCOC(=O)NC(=O)c1ccsc1NC(=O)c1sc(-c2cccnc2)nc1C [Compound 136]	> 50	> 3	> 25
CCOC(=O)NC(=O)c1ccsc1NC(=O)c1ccc2cccnc2n1 [Compound 69]	< 25	< 1	< 5
CCOC(=O)NC(=O)c1ccsc1NC(=O)c1cn2cc(C)ccc2n1 [Compound 208]	> 50	> 3	> 25
CCOC(=O)NC(=O)c1ccsc1NC(=O)C1=NNC(=O)CC1 [Compound 64]	> 50	< 1	< 5
CCOC(=O)NC(=O)c1ccsc1NC(=O)c1c(C)nc2ccc(C)cn12 [Compound 336]	25 to 50 (≈ 64.7 to 129 µM)	> 3	> 25
CCOC(=O)NC(=O)c1ccsc1NC(=O)c1ccc2sc(N3CCOCC3)nc2c1 [Compound 58]	> 50	< 1	5 to 25 (≈ 10.9 to 54.3 µM)
CCOC(=O)NC(=O)c1ccsc1NC(=O)c1cnc2c(Br)cnn2c1 [Compound 266]	25 to 50 (≈ 57 to 114 µM)	< 1	> 25
CC(C)OC(=O)NC(=O)c1ccsc1NC(=O)c1cc2ccccn2n1 [Compound 352]	25 to 50 (≈ 67.1 to 134 µM)	< 1	> 25
CCOC(=O)NC(=O)c1ccsc1NC(=O)c1ccc2cnccc2n1 [Compound 113]	> 50	> 3	> 25
CCOC(=O)NC(=O)c1ccsc1NC(=O)c1ccnc2ccc(OC)cc12 [Compound 123]	> 50	> 3	5 to 25 (≈ 12.5 to 62.6 µM)
CCOC(=O)NC(=O)c1ccsc1NC(=O)c1cc2ccccc2cn1 [Compound 116]	> 50	> 3	> 25
CCOC(=O)NC(=O)c1ccsc1NC(=O)c1nc2cnc(C)cc2s1 [Compound 94]	> 50	< 1	> 25
CCOC(=O)NC(=O)c1ccsc1NC(=O)c1cn2ncccc2n1 [Compound 93]	> 50	< 1	< 5
CCOC(=O)NC(=O)c1cc(F)sc1NC(=O)c1cn2ccccc2n1 [Compound 338]	25 to 50 (≈ 66.4 to 133 µM)	< 1	> 25
CC(C)OC(=O)NC(=O)c1ccsc1NC(=O)/C=C/c1nc2ccccc2s1 [Compound 366]	< 25	< 1	5 to 25 (≈ 12 to 60.2 µM)
CCOC(=O)NC(=O)c1ccsc1NC(=O)c1nc2cccnc2s1 [Compound 83]	> 50	< 1	< 5
CCOC(=O)NC(=O)c1ccsc1NC(=O)c1ccnc(NC(=O)N2CCC(F)(F)CC2)c1 [Compound 50]	25 to 50 (≈ 51.9 to 104 µM)	< 1	> 25
CCOC(=O)NC(=O)c1ccsc1NC(=O)c1nc(-c2ccccc2)oc1C [Compound 130]	> 50	> 3	> 25
CC(C)OC(=O)NC(=O)c1cc(F)sc1NC(=O)c1cnc2ccnn2c1 [Compound 316]	25 to 50 (≈ 63.9 to 128 µM)	1 to 3 (≈ 2.56 to 7.67 µM)	> 25
CCC(CC)OC(=O)NC(=O)c1ccsc1NC(=O)c1nc2cnccc2s1 [Compound 328]	< 25	< 1	> 25

SMILES	CC50 [1] [µg/mL]	MIC [2] [µg/mL]	MIC [3] [µg/mL]
CCOC(=O)NC(=O)c1ccsc1NC(=O)c1ccnc(NC(=O)CN2CCOCC2)c1 [Compound 46]	> 50	< 1	> 25
CN(C)C(=O)NC(=O)c1ccsc1NC(=O)c1nc2cnccc2s1 [Compound 384]	< 25	> 3	> 25
CCOC(=O)NC(=O)c1ccsc1NC(=O)c1cc(C(F)(F)F)nc2ccccc12 [Compound 117]	< 25	> 3	> 25
CCOC(=O)N(C)C(=O)c1ccsc1NC(=O)c1nc2cnccc2s1 [Compound 376]	< 25	> 3	> 25
CC(=O)N1CCC(OC(=O)NC(=O)c2ccsc2NC(=O)c2nc3cnccc3s2)CC1 [Compound 367]	25 to 50 (≈ 52.8 to 106 µM)	> 3	> 25
COC(=O)NC(=O)c1ccsc1NC(=O)c1cnc2ccnn2c1 [Compound 313]	25 to 50 (≈ 72.4 to 145 µM)	> 3	> 25
CCOC(=O)NC(=O)c1ccsc1NC(=O)C1=Cc2cc(OC)ccc2OC1 [Compound 68]	> 50	< 1	< 5
CCOC(=O)NC(=O)c1ccsc1NC(=O)c1cn2cccc(C#N)c2n1 [Compound 124]	> 50	> 3	< 5
C#CCOC(=O)NC(=O)c1ccsc1NC(=O)c1nc2cnccc2s1 [Compound 100]	25 to 50 (≈ 64.7 to 129 µM)	< 1	> 25
COCCOC(=O)NC(=O)c1ccsc1NC(=O)c1nc2cnccc2s1 [Compound 103]	> 50	< 1	> 25
CCOC(=O)NC(=O)c1ccsc1NC(=O)c1cnc2ccccn12 [Compound 142]	25 to 50 (≈ 69.8 to 140 µM)	> 3	> 25
CC(C)OC(=O)NC(=O)c1cc(F)sc1NC(=O)c1cn2ccccc2n1 [Compound 339]	25 to 50 (≈ 64 to 128 µM)	< 1	> 25
CCOC(=O)NC(=O)c1ccsc1NC(=O)c1cnc2ccoc2c1 [Compound 353]	25 to 50 (≈ 69.6 to 139 µM)	1 to 3 (≈ 2.78 to 8.35 µM)	> 25
O=C(NC(=O)c1ccsc1NC(=O)c1cnc2ccnn2c1)OCc1ccccc1F [Compound 285]	< 25	> 3	> 25
CCOC(=O)NC(=O)c1ccsc1NC(=O)c1cc2c(F)cccc2s1 [Compound 331]	< 25	< 1	5 to 25 (≈ 12.7 to 63.7 µM)
CC(=O)N1CCC(OC(=O)NC(=O)c2ccsc2NC(=O)c2cn3ccccc3n2)CC1 [Compound 375]	25 to 50 (≈ 54.9 to 110 µM)	> 3	> 25
CCOC(=O)NC(=O)c1ccsc1NC(=O)c1cnc2ccccc2n1 [Compound 87]	> 50	< 1	< 5
CCOC(=O)NC(=O)c1ccsc1NC(=O)c1ccc2ncoc2c1 [Compound 75]	> 50	> 3	> 25
CC(C)OC(=O)NC(=O)c1ccsc1NC(=O)c1cnc2ccsc2c1 [Compound 395]	< 25	< 1	> 25
CCOC(=O)NC(=O)c1ccsc1NC(=O)c1nc2c(s1)CCCC2 [Compound 217]	> 50	< 1	> 25
